Test results from patent publication US20180002312A1, “TETRA- AND PENTASUBSTITUTED BENZIMIDAZOLIUM COMPOUNDS USEFUL IN THE TREATMENT OF RESPIRATORY DISEASES” (Boehringer Ingelheim International GmbH, priority 2015, published 2018).
Read-outs that look alike come from different tables or passages of the source.

Columns and labels:
[1] = biological target: T1, ENaC (Epithelial Sodium Channel) (Mus musculus, UniProt Q61180+Q9WU38+Q9WU39); assay: Ussing Chamber assay: inhibition of amiloride sensitive short circuit current in M-1 cells; assay type: cell-based
T1 construct: Mouse kidney M-1 cells were cultivated in DMEM; endogenous in cells; host or cells: mouse kidney M-1 cells (cortical collecting duct line), dexamethasone-treated, grown on transwell filters
T1 sequence (Q61180 1-699): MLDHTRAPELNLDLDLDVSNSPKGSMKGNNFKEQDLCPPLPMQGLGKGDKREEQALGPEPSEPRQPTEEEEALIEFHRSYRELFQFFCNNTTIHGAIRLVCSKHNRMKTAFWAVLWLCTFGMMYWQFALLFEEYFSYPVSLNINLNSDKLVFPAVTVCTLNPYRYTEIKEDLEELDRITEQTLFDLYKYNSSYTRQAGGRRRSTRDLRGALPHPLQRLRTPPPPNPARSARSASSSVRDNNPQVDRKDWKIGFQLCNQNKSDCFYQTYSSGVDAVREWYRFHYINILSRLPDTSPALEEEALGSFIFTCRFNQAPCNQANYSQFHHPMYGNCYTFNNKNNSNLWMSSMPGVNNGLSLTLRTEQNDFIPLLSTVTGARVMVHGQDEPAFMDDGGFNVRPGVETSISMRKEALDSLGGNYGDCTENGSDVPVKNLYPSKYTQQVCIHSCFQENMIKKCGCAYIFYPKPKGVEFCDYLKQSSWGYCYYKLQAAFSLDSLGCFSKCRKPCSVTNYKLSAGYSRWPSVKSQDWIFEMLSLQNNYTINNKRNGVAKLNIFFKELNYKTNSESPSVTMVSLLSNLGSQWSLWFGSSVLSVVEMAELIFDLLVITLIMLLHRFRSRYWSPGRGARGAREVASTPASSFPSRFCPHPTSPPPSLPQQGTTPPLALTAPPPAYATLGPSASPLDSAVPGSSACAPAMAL
T1 sequence (Q9WU38 1-638): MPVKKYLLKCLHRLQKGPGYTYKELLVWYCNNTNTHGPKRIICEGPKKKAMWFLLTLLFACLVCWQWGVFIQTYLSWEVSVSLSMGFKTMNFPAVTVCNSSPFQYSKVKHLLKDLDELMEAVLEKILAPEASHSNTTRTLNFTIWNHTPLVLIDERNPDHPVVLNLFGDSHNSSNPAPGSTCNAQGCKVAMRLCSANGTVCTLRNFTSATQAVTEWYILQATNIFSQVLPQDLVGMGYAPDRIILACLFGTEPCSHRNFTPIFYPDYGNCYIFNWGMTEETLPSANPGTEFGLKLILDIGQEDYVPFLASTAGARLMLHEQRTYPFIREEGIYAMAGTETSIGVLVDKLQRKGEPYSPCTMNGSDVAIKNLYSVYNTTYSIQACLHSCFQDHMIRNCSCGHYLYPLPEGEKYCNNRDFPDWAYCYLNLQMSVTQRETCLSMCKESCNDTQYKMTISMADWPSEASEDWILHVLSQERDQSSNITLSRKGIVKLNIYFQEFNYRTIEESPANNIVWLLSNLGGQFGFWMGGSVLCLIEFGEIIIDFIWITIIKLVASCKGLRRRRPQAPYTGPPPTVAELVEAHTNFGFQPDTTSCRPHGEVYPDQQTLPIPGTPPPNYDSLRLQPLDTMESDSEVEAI
T1 sequence (Q9WU39 1-655): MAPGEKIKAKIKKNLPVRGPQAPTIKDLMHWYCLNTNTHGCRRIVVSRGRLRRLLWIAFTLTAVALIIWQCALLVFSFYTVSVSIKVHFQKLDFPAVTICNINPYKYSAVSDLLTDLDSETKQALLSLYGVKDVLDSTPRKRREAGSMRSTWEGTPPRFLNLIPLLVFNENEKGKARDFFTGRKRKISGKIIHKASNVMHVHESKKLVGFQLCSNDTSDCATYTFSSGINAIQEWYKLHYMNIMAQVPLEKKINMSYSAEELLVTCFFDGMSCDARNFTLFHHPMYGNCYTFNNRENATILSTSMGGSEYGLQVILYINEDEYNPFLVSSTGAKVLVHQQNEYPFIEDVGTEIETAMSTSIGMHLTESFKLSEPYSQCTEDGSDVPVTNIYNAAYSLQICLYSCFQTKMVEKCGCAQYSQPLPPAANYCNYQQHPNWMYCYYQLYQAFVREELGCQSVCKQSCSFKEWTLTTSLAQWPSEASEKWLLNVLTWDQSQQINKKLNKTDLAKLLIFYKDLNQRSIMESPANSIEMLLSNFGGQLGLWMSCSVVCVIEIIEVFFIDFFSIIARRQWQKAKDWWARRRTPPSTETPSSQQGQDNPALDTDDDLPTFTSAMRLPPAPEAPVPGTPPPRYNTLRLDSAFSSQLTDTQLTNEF
Procedure: Ussing Chamber: Mouse kidney M-1 cells were cultivated in DMEM containing 5% FCS and 5 μM dexamethasone for 10 to 12 days on polyester transwell filters. Filters were inserted into a teflon-coated well-plate which fit into the ussing chamber system. Prior to measurement the medium of M-1 cells was replaced with Caco-2 transport buffer (Invitrogen, Germany). During measurements, the Ussing chamber temperature was kept at 37° C. Short circuit currents (I_sc) were measured in the voltage-clamp mode with the software package Lab View for data acquisition and analysis. The transepithelial electrical resistance (TEER) was determined by the application of voltage steps of ±5 mV every 5 sec. Compounds were administered at a final concentration of 3 μM or at increasing concentrations (1-3-10 μM) to the apical solution. At the end of each experiment the amiloride sensitive I_SC was measured by adding 3 μM amiloride to the apical compartment. Results are expressed as inhibition in percent of the amiloride effect or as IC50.

[2] = Permeability in CALU-3 cells; assay type: in vitro ADME; conditions: human, CALU-3 monolayers, pH 7.4, 37° C., 10 μM compound; for Papp A→B at 90 min, 10 μM: apical-to-basal; for Papp B→A at 90 min, 10 μM: basal-to-apical
Procedure: Permeability in CALU-3 Cells:
Permeability measurements across polarized, confluent CALU-3 cell monolayers grown on permeable filter supports are used to provide information on the potential of a compound to pass the lung epithelium.
CALU-3 cells (1-2×10^5 cells/1 cm^2 area) are seeded on filter inserts (Costar transwell polycarbonate filters, 0.4 μm pore size) and cultured (for 10-12 days DMEM) until tight monolayers are formed. Compounds of interest are dissolved in appropriate solvent (DMSO, 10 mM stock solution). […] The transport solution (TL) is applied to the apical or basolateral donor side for measuring A-B or B-A permeability (3 filter replicates), respectively. The receiver side contains the same buffer as the donor side. After 30 min of accommodation, samples are collected at the start t0=0 min and at the end of the experiment tn=90 min from the donor and at 0, 30, 60, and 90 min also from the receiver chamber. Volume removed is […] by HTP-4 buffer. The compound concentration in the samples is measured by HPLC-MS/MS or scintillation counting. The permeability coefficient (Papp) and efflux ratio are calculated according to: Papp [cm/s]=(concentration receiver [nM]*volume receiver [mL]/time interval [sec])*(1/filter area)*(1/donor concentration [nM]).

[3] = Ussing chamber, mouse kidney M-1 cells, short circuit current, apical administration, 37° C., read-out: IC50

| IC50 [1, 3] | Papp A→B at 90 min, 10 μM [2] | Papp B→A at 90 min, 10 μM [2] | SMILES | IC50 [1] |
| --- | --- | --- | --- | --- |
| 1 nM | 0.03 ×10⁻⁶ cm/s | 0.05 ×10⁻⁶ cm/s | CC[n+]1c(CNC(=O)c2nc(Cl)c(N)nc2N)n(C[C@@H]2CCCO2)c2cc(OCC(=O)NCc3ccccn3)ccc21.O=C([O-])C(F)(F)F [Example 2.01] | – |
| 3 nM | – | – | CCNC(=O)N1CCC(n2c(CNC(=O)c3nc(Cl)c(N)nc3N)[n+](CC)c3ccc(OCC(=O)NC4CCNCC4)cc32)CC1 [Example 3.02] | – |
| 4 nM | – | – | CCCCCCN1CCC(NC(=O)COc2ccc3c(c2)n(C2CCN(C(=O)NCC)CC2)c(CNC(=O)c2nc(Cl)c(N)nc2N)[n+]3CC)CC1 [Example 4.01] | – |
| 2 nM | – | – | CCNC(=O)N1CCC(n2c(CNC(=O)c3nc(Cl)c(N)nc3N)[n+](CC)c3ccc(OCC(=O)NC4CCN(CC)CC4)cc32)CC1 [Example 4.02] | – |
| 18 nM | – | – | CCNC(=O)N1CCC(n2c(CNC(=O)c3nc(Cl)c(N)nc3N)[n+](CC)c3ccc(OCC(=O)O)cc32)CC1 [Example 5.01] | – |
| 63 nM | – | – | CC[n+]1c(CNC(=O)c2nc(Cl)c(N)nc2N)n(CCCCP(=O)([O-])O)c2cc(O)ccc21 [Example 7.01] | – |

The remaining lines, values behind:

| SMILES | IC50 [1, 3] | Papp A→B at 90 min, 10 μM [2] | Papp B→A at 90 min, 10 μM [2] | IC50 [1] |
| --- | --- | --- | --- | --- |
| CC[n+]1c(CNC(=O)c2nc(Cl)c(N)nc2N)n(C[C@@H]2CCCO2)c2cc(OCC(=O)N3CC[S+]([O-])CC3)ccc21.O=C([O-])C(F)(F)F [Example 1.01] | 1 nM | 0.5 ×10⁻⁶ cm/s | 0.08 ×10⁻⁶ cm/s | – |
| CCn1c(CNC(=O)c2nc(Cl)c(N)nc2N)[n+](Cc2cccnc2)c2ccc(OCC(=O)N(C)C)cc21.O=C([O-])C(F)(F)F [Example 1.02] | 6 nM | 0.4 ×10⁻⁶ cm/s | 0.2 ×10⁻⁶ cm/s | – |
| CC[n+]1c(CNC(=O)c2nc(Cl)c(N)nc2N)n(CCOCCn2ccccc2=O)c2cc(OCP(C)(C)=O)ccc21.O=C([O-])C(F)(F)F [Example 1.03] | 49 nM | 0.2 ×10⁻⁶ cm/s | 0.07 ×10⁻⁶ cm/s | – |
| C[n+]1c(CNC(=O)c2nc(Cl)c(N)nc2N)n(C[C@@H]2CCCO2)c2cc(OCCO)ccc21.O=C([O-])C(F)(F)F [Example 1.04] | 3 nM | 0.3 ×10⁻⁶ cm/s | 0.2 ×10⁻⁶ cm/s | – |
| CCn1c(CNC(=O)c2nc(Cl)c(N)nc2N)[n+](CC2CCOCC2)c2ccc(OCC(=O)N(Cc3ccccc3)Cc3nc(C)ccc3[O-])cc21 [Example 1.05] | 5 nM | – | – | – |
| CCn1c(CNC(=O)c2nc(Cl)c(N)nc2N)[n+](CC2CCOCC2)c2ccc(OCC(=O)N(C)Cc3nc(C)ccc3[O-])cc21 [Example 1.06] | 1 nM | – | – | – |
| CCn1c(CNC(=O)c2nc(Cl)c(N)nc2N)[n+](CC2CCOCC2)c2ccc(OCC(=O)NCc3nc(C)ccc3[O-])cc21 [Example 1.07] | 2 nM | – | – | – |
| CCn1c(CNC(=O)c2nc(Cl)c(N)nc2N)[n+](Cc2cccc(C(=O)N3CC[S+]([O-])CC3)c2)c2ccc(OCCO)cc21.O=C([O-])C(F)(F)F [Example 1.08] | 16 nM | 0.1 ×10⁻⁶ cm/s | 0.09 ×10⁻⁶ cm/s | – |
| Nc1nc(N)c(C(=O)NCc2n(C[C@@H]3CCCO3)c3cc(OCCO)ccc3[n+]2CCOCCO)nc1Cl [Example 1.09] | 3 nM | – | – | – |
| CC[n+]1c(CNC(=O)c2nc(Cl)c(N)nc2N)n(CCOCCn2cc(C(=O)N(C)C)ccc2=O)c2cc(OCCO)ccc21 [Example 1.11] | 26 nM | – | – | – |
| CCn1c(CNC(=O)c2nc(Cl)c(N)nc2N)[n+](CC2CCOCC2)c2ccc(OCC(=O)N(Cc3nc(C)ccc3[O-])C[C@H](C)O)cc21 [Example 1.12] | 2 nM | – | – | – |
| CC[n+]1c(CNC(=O)c2nc(Cl)c(N)nc2N)n(CC2CCOCC2)c2cc(OCCC[n+]3cc([O-])cc(OC)c3)c(Cl)cc21.O=C([O-])C(F)(F)F [Example 1.13] | 2 nM | 0.4 ×10⁻⁶ cm/s | 0.1 ×10⁻⁶ cm/s | – |
| CC[n+]1c(CNC(=O)c2nc(Cl)c(N)nc2N)n(C[C@@H]2CCCO2)c2cc(OCC(=O)N3CCN(C(=O)OCc4ccccc4)CC3)ccc21 [Example 1.14] | 7 nM | – | – | – |
| CC[n+]1c(CNC(=O)c2nc(Cl)c(N)nc2N)n(C[C@@H]2CCCO2)c2cc(OCC(=O)N3C[C@@H](O)[C@H](O)C3)ccc21 [Example 1.15] | 2 nM | – | – | – |
| CC[n+]1c(CNC(=O)c2nc(Cl)c(N)nc2N)n(CCOCCN2CCCCC2=O)c2cc(OCP(C)(C)=O)ccc21 [Example 1.16] | 87 nM | – | – | – |
| CCN(Cc1ncccc1[O-])C(=O)COc1ccc2c(c1)n(CC)c(CNC(=O)c1nc(Cl)c(N)nc1N)[n+]2CC1CCOCC1 [Example 1.17] | 1 nM | – | – | – |
| CCOP(=O)([O-])CCCCn1c(CNC(=O)c2nc(Br)c(N)nc2N)[n+](CC)c2ccc(O)cc21 [Example 6.01] | – | – | – | 25 nM |
